Tests used:
[1] = tested on: partial tear of the patellar tendon; test: Patient case: oral atorvastatin for a partial tear of the patellar tendon in a hypercholesterolemic patient; assay type: in vivo, human; details: orally 20 mg once daily
Procedure: (§1) A person presents with a partial tear of the patellar tendon. Their orthopedist orders a standard lipid panel as part of their blood work. The orthopedist finds that the patient is hypercholesterolemic with a total cholesterol of almost 300 mg/DL. The orthopedist prescribes atorvastatin to be taken orally at a dose of 20 mg once daily.

[2] = tested on: partial rupture of achilles tendon; test: Patient case: oral rosuvastatin for a partial rupture of the achilles tendon in a hypercholesterolemic patient; assay type: in vivo, human; details: orally 10 mg once daily
Procedure: as §1, with “diabetic” for “person”, “rupture” for “tear”, “their achilles” for “the patellar”, “285” for “almost 300”, “rosuvastatin” for “atorvastatin”, “10” for “20”

| SMILES | recovery from partial tear of the patellar tendon ([1]; hypercholesterolemic person) | cholesterol lowering ([1]; person, total cholesterol almost 300 mg/DL at presentation) | cholesterol lowering ([2]; diabetic, total cholesterol 285 mg/DL at presentation) | recovery from partial rupture of achilles tendon ([2]; hypercholesterolemic diabetic) |
| --- | --- | --- | --- | --- |
| CC(C)c1c(C(=O)Nc2ccccc2)c(-c2ccccc2)c(-c2ccc(F)cc2)n1CC[C@@H](O)C[C@@H](O)CC(=O)O [atorvastatin] | markedly improved | lowering their cholesterol to acceptable levels | – | – |
| CC(C)c1nc(N(C)S(C)(=O)=O)nc(-c2ccc(F)cc2)c1/C=C/[C@@H](O)C[C@@H](O)CC(=O)O [rosuvastatin] | – | – | lowering their cholesterol to acceptable levels | markedly improved |

Reference: patent publication US9427437B2, “Hypercholesterolemia and tendinous injuries” (The Trustees of the University of Pennsylvania, priority 2008, dated 2016)
